# PubChem BioAssay (NCI)
#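 Assay format: 96-well plates, 48-hour exposure. Abbreviation: GI50, concentration required for 50% inhibition of growth. At the TGI there is no net growth.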
# Legend:
# Test in all cases: NCI tumour cell line growth inhibition, 48 h
# HS 578T breast = system: HS 578T breast
# UACC-62 melanoma = system: UACC-62 melanoma
# LOX IMVI melanoma = system: LOX IMVI melanoma
# MCF7 breast = system: MCF7 breast
# OVCAR-4 ovarian = system: OVCAR-4 ovarian
# TK-10 renal = system: TK-10 renal
# PC-3 prostate = system: PC-3 prostate
# NCI-H460 lung = system: NCI-H460 lung
# NCI-H23 lung = system: NCI-H23 lung
# A549 NSCLC = system: A549 NSCLC
# KM12 colon = system: KM12 colon
# RPMI-8226 leukemia = system: RPMI-8226 leukemia
# HOP-92 NSCLC = system: HOP-92 NSCLC
# OVCAR-5 ovarian = system: OVCAR-5 ovarian
# DU-145 prostate = system: DU-145 prostate
# MDA-MB-231 breast = system: MDA-MB-231 breast
# SNB-19 CNS = system: SNB-19 CNS
# 786-0 renal = system: 786-0 renal
# CAKI-1 renal = system: CAKI-1 renal
# HT29 colon = system: HT29 colon
# NCI-H226 lung = system: NCI-H226 lung
# U251 CNS = system: U251 CNS
# HCC-2998 colon = system: HCC-2998 colon
# SF-539 CNS = system: SF-539 CNS
# IGROV1 ovarian = system: IGROV1 ovarian
# BT-549 breast = system: BT-549 breast
# SK-MEL-2 melanoma = system: SK-MEL-2 melanoma
# M14 melanoma = system: M14 melanoma
# SN12C renal = system: SN12C renal
# SK-MEL-28 melanoma = system: SK-MEL-28 melanoma
# SW-620 colon = system: SW-620 colon
# SK-OV-3 ovarian = system: SK-OV-3 ovarian
# UACC-257 melanoma = system: UACC-257 melanoma
# UO-31 renal = system: UO-31 renal
# RXF 393 renal = system: RXF 393 renal
# NCI-H522 lung = system: NCI-H522 lung
# SF-295 CNS = system: SF-295 CNS
# COLO 205 colon = system: COLO 205 colon
# NCI/ADR-RES ovarian = system: NCI/ADR-RES ovarian
# ACHN renal = system: ACHN renal
# HOP-62 NSCLC = system: HOP-62 NSCLC
# HCT-15 colon = system: HCT-15 colon
# T-47D breast = system: T-47D breast
# SR leukemia = system: SR leukemia
# HCT-116 colon = system: HCT-116 colon
# CCRF-CEM leukemia = system: CCRF-CEM leukemia
# MDA-MB-435 = system: MDA-MB-435
# MALME-3M melanoma = system: MALME-3M melanoma
# SK-MEL-5 melanoma = system: SK-MEL-5 melanoma
# A498 renal = system: A498 renal
# SNB-75 CNS = system: SNB-75 CNS
# HL-60(TB) leukemia = system: HL-60(TB) leukemia
# EKVX NSCLC = system: EKVX NSCLC
# OVCAR-8 ovarian = system: OVCAR-8 ovarian
# K-562 leukemia = system: K-562 leukemia
# MOLT-4 leukemia = system: MOLT-4 leukemia
# SF-268 CNS = system: SF-268 CNS
# OVCAR-3 ovarian = system: OVCAR-3 ovarian
structure (smiles),measurement,setting,value
Nc1nc2c(nnn2C2OC(CO)C(O)C2O)c(=O)[nH]1 (stereo unspecified),GI50,HS 578T breast,12 µM
same,TGI,HS 578T breast,> 100 µM
same,GI50,UACC-62 melanoma,1140 nM
same,TGI,UACC-62 melanoma,12.9 µM
same,GI50,LOX IMVI melanoma,475 nM
same,TGI,LOX IMVI melanoma,> 100 µM
same,GI50,MCF7 breast,1420 nM
same,TGI,MCF7 breast,> 100 µM
same,GI50,OVCAR-4 ovarian,1590 nM
same,TGI,OVCAR-4 ovarian,> 100 µM
same,GI50,TK-10 renal,2050 nM
same,TGI,TK-10 renal,32.6 µM
same,GI50,PC-3 prostate,617 nM
same,TGI,PC-3 prostate,> 44 µM
same,GI50,NCI-H460 lung,1510 nM
same,TGI,NCI-H460 lung,> 40.6 µM
same,GI50,NCI-H23 lung,1540 nM
same,TGI,NCI-H23 lung,> 100 µM
same,GI50,A549 NSCLC,3.01 µM
same,TGI,A549 NSCLC,> 100 µM
same,GI50,KM12 colon,970 nM
same,TGI,KM12 colon,> 46.8 µM
same,GI50,RPMI-8226 leukemia,2760 nM
same,TGI,RPMI-8226 leukemia,> 100 µM
same,GI50,HOP-92 NSCLC,505 nM
same,TGI,HOP-92 NSCLC,68.4 µM
same,GI50,OVCAR-5 ovarian,13.3 µM
same,TGI,OVCAR-5 ovarian,> 100 µM
same,GI50,DU-145 prostate,371 nM
same,TGI,DU-145 prostate,> 78.8 µM
same,GI50,MDA-MB-231 breast,4.48 µM
same,TGI,MDA-MB-231 breast,> 100 µM
same,GI50,SNB-19 CNS,7.33 µM
same,TGI,SNB-19 CNS,> 100 µM
same,GI50,786-0 renal,941 nM
same,TGI,786-0 renal,> 100 µM
same,GI50,CAKI-1 renal,567 nM
same,TGI,CAKI-1 renal,> 100 µM
same,GI50,HT29 colon,1660 nM
same,TGI,HT29 colon,42.6 µM
same,GI50,NCI-H226 lung,6.31 µM
same,TGI,NCI-H226 lung,> 100 µM
same,GI50,U251 CNS,2960 nM
same,TGI,U251 CNS,> 100 µM
same,GI50,HCC-2998 colon,854 nM
same,TGI,HCC-2998 colon,> 27.3 µM
same,GI50,SF-539 CNS,1590 nM
same,TGI,SF-539 CNS,> 39.7 µM
same,GI50,IGROV1 ovarian,2760 nM
same,TGI,IGROV1 ovarian,> 100 µM
same,GI50,BT-549 breast,2410 nM
same,TGI,BT-549 breast,> 26.3 µM
same,GI50,SK-MEL-2 melanoma,777 nM
same,TGI,SK-MEL-2 melanoma,23.8 µM
same,GI50,M14 melanoma,2070 nM
same,TGI,M14 melanoma,> 100 µM
same,GI50,SN12C renal,3.25 µM
same,TGI,SN12C renal,> 100 µM
same,GI50,SK-MEL-28 melanoma,16.9 µM
same,TGI,SK-MEL-28 melanoma,> 100 µM
same,GI50,SW-620 colon,1180 nM
same,TGI,SW-620 colon,> 100 µM
same,GI50,SK-OV-3 ovarian,330 nM
same,TGI,SK-OV-3 ovarian,> 23.9 µM
same,GI50,UACC-257 melanoma,7.29 µM
same,TGI,UACC-257 melanoma,> 100 µM
same,GI50,UO-31 renal,1710 nM
same,TGI,UO-31 renal,> 100 µM
same,GI50,RXF 393 renal,1400 nM
same,TGI,RXF 393 renal,13.6 µM
same,GI50,NCI-H522 lung,596 nM
same,TGI,NCI-H522 lung,6.74 µM
same,GI50,SF-295 CNS,1210 nM
same,TGI,SF-295 CNS,> 100 µM
same,GI50,COLO 205 colon,393 nM
same,TGI,COLO 205 colon,1670 nM
same,GI50,NCI/ADR-RES ovarian,1230 nM
same,TGI,NCI/ADR-RES ovarian,> 100 µM
same,GI50,ACHN renal,298 nM
same,TGI,ACHN renal,> 100 µM
same,GI50,HOP-62 NSCLC,3.2 µM
same,TGI,HOP-62 NSCLC,> 100 µM
same,GI50,HCT-15 colon,714 nM
same,TGI,HCT-15 colon,> 100 µM
same,GI50,T-47D breast,2870 nM
same,TGI,T-47D breast,> 100 µM
same,GI50,SR leukemia,1160 nM
same,TGI,SR leukemia,> 100 µM
same,GI50,HCT-116 colon,2160 nM
same,TGI,HCT-116 colon,> 100 µM
same,GI50,CCRF-CEM leukemia,676 nM
same,TGI,CCRF-CEM leukemia,> 100 µM
same,GI50,MDA-MB-435,2110 nM
same,TGI,MDA-MB-435,> 100 µM
same,GI50,MALME-3M melanoma,4.62 µM
same,TGI,MALME-3M melanoma,> 100 µM
same,GI50,SK-MEL-5 melanoma,2440 nM
same,TGI,SK-MEL-5 melanoma,9.24 µM
same,GI50,A498 renal,1860 nM
same,TGI,A498 renal,> 30.2 µM
same,GI50,SNB-75 CNS,5.86 µM
same,TGI,SNB-75 CNS,> 100 µM
same,GI50,HL-60(TB) leukemia,546 nM
same,TGI,HL-60(TB) leukemia,> 100 µM
same,GI50,EKVX NSCLC,14.1 µM
same,TGI,EKVX NSCLC,> 100 µM
same,GI50,OVCAR-8 ovarian,1180 nM
same,TGI,OVCAR-8 ovarian,> 100 µM
same,GI50,K-562 leukemia,2060 nM
same,TGI,K-562 leukemia,> 100 µM
same,GI50,MOLT-4 leukemia,847 nM
same,TGI,MOLT-4 leukemia,> 100 µM
same,GI50,SF-268 CNS,3.15 µM
same,TGI,SF-268 CNS,> 100 µM
same,GI50,OVCAR-3 ovarian,1170 nM
same,TGI,OVCAR-3 ovarian,10.7 µM
